Measured values as given in patent US20150232509A1, “SPIRO RING COMPOUNDS AS HEPATITIS C VIRUS (HCV) INHIBITORS” (SUNSHINE LAKE PHARMA CO., LTD., priority 2012, published 2015).
pEC50: −log10 of the molar value.

How the values were obtained:
HCV GT1b replicon cells = test: HCV Replicon assay, GT1b replicon cells (Luciferase / NEO qPCR); format: cell-based; details: Hepatitis C virus, 72 hours incubation, read-out: EC50 against HCV 1b genotype
Protocol: (§1) An HCV Replicon assay was utilized in the present invention, and was prepared, developed and validated as described in Science, 1999, 285 (5424), 110-3 and J. Virol., 2003, 77 (5), 3007-19.
(§2) HCV GT1a, GT1b and GT2a replicon cells were used to test the currently described compound series as well as wild-type cells HCV 1b and resistant cells Y93H, L31F, P32L and 1302V. […]
(§3) The GT1a cells and GT1b cells were seeded into 96-well plates (8,000 cells in 125 μL/well) respectively; each compound was diluted to desired concentration using 5-fold serial dilutions protocol, 10 doses in duplicate, and added to wells with POD™ 810 Plate Assembler. The final concentration of DMSO was 0.5%; the plates were incubated in a CO2 incubator for 72 hours; after that, 40 μL of Luciferase assay substrate (Promega Bright-Glo) was added to each well, and detected by a chemiluminescence detection system (Topcount Microplate Scintillation and Luminescence Counter) 5 minutes later; data analysis.
(§4) The GT1a cells and GT1b cells were seeded into 96-well plates (8,000 cells in 125 μL/well) respectively; each compound was diluted to desired concentration using 5-fold serial dilutions protocol, 10 doses in duplicate, and added to wells with POD™ 810 Plate Assembler., the final concentration of DMSO was 0.5%; the cells were incubated in a CO2 incubator for 72 hours; quantitative PCR. • Sample preparation: the supernatant was removed, 100 μL of FCW buffer solution was added to each well, washed carefully and discarded the solution; 50 μL of lysate FCP was added to each well, the cells was lysed as PCR template and PCR template was diluted with DEPC water as sample template. • Quantitative PCR: preparation of reaction mixture according to PCR system; the reaction mixture was dispensed into a 384-well PCR reaction plate (specially for quantitative); and a standard template which was diluted in proportion was distributed into the plate; and the sample template was distributed into the plate; then the 384-well plate was sealed with closure plate membrane; the […] PCR machine was operated by procedures; data analysis. 3. Data Processing: the EC50 Values of Compounds were Analyzed by GraphPad Prism Software.

HCV GT1a replicon cells = test: HCV Replicon assay, GT1a replicon cells (Luciferase / NEO qPCR); format: cell-based; details: Hepatitis C virus, 72 hours incubation, read-out: EC50 against HCV 1a genotype
Protocol: as §1, §2, §3, §4

Row | SMILES | pEC50 (HCV GT1b replicon cells) | pEC50 (HCV GT1a replicon cells)
1 | COC(=O)N[C@H](C(=O)N1CCC[C@H]1c1ncc(-c2ccc(-c3ccc(-c4ccc5nc([C@@H]6CCCN6C(=O)[C@@H](NC(=O)OC)C(C)C)[nH]c5c4)c4c3CCC43CCCC3)c3cnoc23)[nH]1)C(C)C [Example 46] | 9.93 | 9.41
2 | COC(=O)N[C@H](C(=O)N1CCC[C@H]1c1ncc(-c2ccc(-c3sc(-c4cnc([C@@H]5CCCN5C(=O)[C@@H](NC(=O)OC)C(C)C)[nH]4)c4c3C3(CCCC3)CC4)cc2)[nH]1)C(C)C [Example 47] | 9.16 | 8.45
3 | COC(=O)N[C@H](C(=O)N1CCC[C@H]1c1ncc(-c2ccc(-c3ccc(-c4cnc([C@@H]5CCCN5C(=O)[C@@H](NC(=O)OC)C(C)C)[nH]4)c4c3C3(CC4)CCN(C)C3)cc2)[nH]1)C(C)C (stereo partly shown) [Example 48] | 9.62 | 8.51
4 | COC(=O)N[C@H](C(=O)N1CCC[C@H]1c1ncc(-c2ccc(-c3ccc(-c4cnc([C@@H]5CCCN5C(=O)[C@@H](NC(=O)OC)C(C)C)[nH]4)c4c3C3(CCCN3C)CC4)cc2)[nH]1)C(C)C (stereo partly shown) [Example 49] | 9.45 | 7.63
5 | COC(=O)N[C@H](C(=O)N1CCC[C@H]1c1ncc(-c2ccc(-c3ccc(-c4cnc([C@@H]5CCCN5C(=O)[C@@H](NC(=O)OC)C(C)C)[nH]4)c4c3C3(CCC4)CCN(C)C3)cc2)[nH]1)C(C)C (stereo partly shown) [Example 50] | 10.02 | 9.06
6 | COC(=O)N[C@H](C(=O)N1CCC[C@H]1c1ncc(-c2ccc(-c3ccc(-c4cnc([C@@H]5CCCN5C(=O)[C@@H](NC(=O)OC)C(C)C)[nH]4)c4c3C3(CCCO3)CCC4)cc2)[nH]1)C(C)C (stereo partly shown) [Example 51] | 10.07 | 8.34
7 | COC(=O)N[C@H](C(=O)N1CCC[C@H]1c1ncc(-c2ccc(-c3ccc(-c4cnc([C@@H]5CCCN5C(=O)[C@@H](NC(=O)OC)C(C)C)[nH]4)c4c3C3(CCOC3)CC4)cc2)[nH]1)C(C)C (stereo partly shown) [Example 52] | 10.48 | 8.44
8 | COC(=O)NC(C(=O)N1CCCC1c1nc2cc(-c3ccc(-c4ccc5[nH]c(C6CCCN6C(=O)C(NC(=O)OC)C(C)C)nc5c4)c4c3CCC43CCCC3)ccc2[nH]1)C(C)C (stereo not shown) [Example 53] | 10.13 | 9.58
9 | COC(=O)NC(C(=O)N1CCCC1c1nc(-c2ccc(-c3ccc(-c4c[nH]c(C5CCCN5C(=O)C(NC(=O)OC)C(C)C)n4)c4c3C3(CCCC3)CC4)cc2)c[nH]1)C(C)C (stereo not shown) [Example 54] | 10.36 | 8.45
10 | COC(=O)NC(C(=O)N1CCCC1c1ncc(-c2ccc(-c3ccc(-c4ccc5[nH]c(C6CCCN6C(=O)C(NC(=O)OC)C(C)C)nc5c4)c4c3C3(CCCC3)CC4)cc2)[nH]1)C(C)C (stereo not shown) [Example 55] | 10.55 | 10.14
11 | COC(=O)NC(C(=O)N1CCCC1c1ncc(-c2ccc(-c3ccc(-c4ccc5[nH]c(C6CCCN6C(=O)C(NC(=O)OC)C(C)C)nc5c4)c4c3CCC43CCCC3)cc2)[nH]1)C(C)C (stereo not shown) [Example 56] | 10.44 | 9.86
